The nature of data set [1]: In vivo antagonist activity at TRL9 in C57BL/6 mouse assessed as inhibition of ODN1585 stimulated IL-6 production at 3 mg/kg,po for 30 minutes and followed by ODN1585 addition measured after 90 mins by ELISA analysis relative to control. Type of data set: functional. Set-up: scale not given: the % may be the effect or the level left. Particulars: time 120 min, 2 h. For orientation: In an ELISA, binding on a coated surface is turned into a signal by an enzyme label.

The nature of data set [2]: Toxicity in MRL/Ipr Systemic lupus erythematosus mouse model assessed as relative spleen weight at 1 mg/kg, po administered for 8 weeks and measured 24 hrs post final dose relative to control. Type of data set: organism-based. Particulars: in vivo, 1368 h.
Data set [3] in a line: Plasma protein binding in mouse assessed as free fraction. It is filed as ADME, cell-free.
Data set [4] has as its system Mus musculus. Put plainly: Anti-inflammatory activity against MRL/Ipr Systemic lupus erythematosus mouse model assessed as inhibition of proteinuria at 5 mg/kg, po administered for 8 weeks and measured 24 hrs post final dose relative to control. Type of data set: functional. Set-up: scale not given: the % may be the effect or the level left. As to conditions: time 1368 hrs.

The test system of data set [5] is Mus musculus. The experiment in a line: Anti-inflammatory activity against MRL/Ipr Systemic lupus erythematosus mouse model assessed as inhibition of anti-dsDNA Ab titer at 1 mg/kg, po administered for 8 weeks and measured 24 hrs post final dose relative to control. Type of data set: functional. As to conditions: time 1368 hrs. More on the design: scale not given: the % may be the effect or the level left.

Data set [6] is described as follows: In vivo antagonist activity at TRL9 in C57BL/6 mouse assessed as inhibition of ODN1585 stimulated IL-6 production at 30 mg/kg,po for 30 minutes and followed by ODN1585 addition measured after 90 mins by ELISA analysis relative to control. Particulars: time 120 min, 2 h. Type of data set: functional. More on the design: scale not given: the % may be the effect or the level left.

Data set [7] can be described thus: Volume of distribution at steady state in mouse blood at 5 mg/kg, iv. Type of data set: ADME, organism-based. As to conditions: read-out: Vdss.
Data set [8] concerns Mus musculus. The experiment in a line: Anti-inflammatory activity against MRL/Ipr Systemic lupus erythematosus mouse model assessed as inhibition of urinary NGAL at 5 mg/kg, po administered for 8 weeks and measured 24 hrs post final dose relative to control. As to conditions: time 1368 hrs. It is filed as functional. More on the design: scale not given: the % may be the effect or the level left.

For the next data set, the target named is T1, Toll-like receptor 8 (Homo sapiens, UniProt Q9NR97).
T1 sequence (Q9NR97 whole entry): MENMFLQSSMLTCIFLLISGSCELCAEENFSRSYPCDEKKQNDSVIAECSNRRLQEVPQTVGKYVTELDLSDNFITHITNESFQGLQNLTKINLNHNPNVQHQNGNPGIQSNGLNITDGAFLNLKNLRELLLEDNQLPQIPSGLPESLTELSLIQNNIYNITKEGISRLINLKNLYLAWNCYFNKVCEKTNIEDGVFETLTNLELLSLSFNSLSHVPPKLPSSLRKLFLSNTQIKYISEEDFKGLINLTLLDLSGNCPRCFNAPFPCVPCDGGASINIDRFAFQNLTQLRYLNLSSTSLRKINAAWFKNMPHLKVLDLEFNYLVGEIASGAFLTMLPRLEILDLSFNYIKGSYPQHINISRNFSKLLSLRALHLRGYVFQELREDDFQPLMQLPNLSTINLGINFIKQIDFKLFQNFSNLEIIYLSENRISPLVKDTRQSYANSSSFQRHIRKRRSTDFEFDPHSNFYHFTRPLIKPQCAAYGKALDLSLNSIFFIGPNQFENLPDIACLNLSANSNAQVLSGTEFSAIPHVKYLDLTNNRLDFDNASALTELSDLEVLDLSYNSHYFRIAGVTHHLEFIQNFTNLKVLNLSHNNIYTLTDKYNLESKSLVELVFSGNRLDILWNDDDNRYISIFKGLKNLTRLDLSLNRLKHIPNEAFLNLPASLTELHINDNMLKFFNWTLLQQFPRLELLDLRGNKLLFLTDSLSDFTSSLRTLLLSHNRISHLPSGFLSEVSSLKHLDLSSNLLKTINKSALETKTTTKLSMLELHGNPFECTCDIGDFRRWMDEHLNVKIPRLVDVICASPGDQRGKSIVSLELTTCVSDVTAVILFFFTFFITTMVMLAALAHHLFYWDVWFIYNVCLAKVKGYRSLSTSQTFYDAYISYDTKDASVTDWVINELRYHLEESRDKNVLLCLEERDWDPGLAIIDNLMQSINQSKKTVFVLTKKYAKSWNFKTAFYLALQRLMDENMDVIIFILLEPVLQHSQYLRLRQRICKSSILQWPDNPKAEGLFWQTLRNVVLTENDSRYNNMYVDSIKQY

Data set [9] in a line: Toxicity in MRL/Ipr Systemic lupus erythematosus mouse model assessed as relative spleen weight at 5 mg/kg, po administered for 8 weeks and measured 24 hrs post final dose relative to control. Type of data set: organism-based. Particulars: in vivo, 1368 h.
Data set [10] is described as follows: AUClast in mouse blood at 15 mg/kg, po. It is filed as ADME, organism-based. Set-up: time 0 - last, dose 15 mg/kg, route po.
Data set [11] can be described thus: Plasma protein binding in rat assessed as free fraction. It is filed as ADME, cell-free.
A short description of data set [12]: Drug concentration in mouse blood at 15 mg/kg, po measured at 24 hrs. Type of data set: ADME, organism-based. As to conditions: read-out: Ct.
Data set [13] relates to Mus musculus. Put plainly: Anti-inflammatory activity against MRL/Ipr Systemic lupus erythematosus mouse model assessed as inhibition of anti-Sm/RNP Ab titer at 1 mg/kg, po administered for 8 weeks and measured 24 hrs post final dose relative to control. Set-up: scale not given: the % may be the effect or the level left. It is filed as functional. As to conditions: time 1368 hrs.

Data set [14] is described as follows: In vivo antagonist activity at TRL7 in C57BL/6 mouse assessed as inhibition of gardiquimod stimulated IL-6 production at 0.03 mg/kg,po for 30 minutes and followed by gardiquimod addition measured after 90 mins by ELISA analysis relative to control. Type of data set: functional. Set-up: scale not given: the % may be the effect or the level left. Particulars: time 120 min, 2 h.

Take `Cc1cc(-c2[nH]c3ccc(C4CCNCC4)cc3c2C(C)C)cc(C)n1`: the Activity is given as 29% in data set [1]; 48% in [2]; 92% with Mus musculus [4]; 14% in the data set on Mus musculus [5]; 38% in data set [6]; 72% with Mus musculus [8]. In addition, the values for the Activity (in data set [9]; in the data set with Mus musculus [13]; in [14]) were 49%, 84% and 28%, respectively. The unbound share (fraction unbound) – broadly, the share of the substance not bound to proteins or other matrix – in data set [3] was determined as 0.05; in data set [11] it was 0.11. The Vd in [7] worked out at 113 L/kg. For the same compound, the IC50 (as a rule, the midpoint of a concentration-inhibition curve) against Toll-like receptor 8 was determined as 4.2 nM. For the same compound, the AUC(0-t) – broadly, the area under the concentration-time curve up to a stated or last time point – in data set [10] was 2.77 µM·h. In [12], the concentration at 24 h is 22 nM.

(Values after ChEMBL document CHEMBL5131534, “Identification of 2-Pyridinylindole-Based Dual Antagonists of Toll-like Receptors 7 and 8 (TLR7/8)” (ACS Med Chem Lett, 2022).)
